Measurements: patent US7964624B1, “Inhibitors of serine proteases” (priority 2005, dated 2011)
pKi: −log10 of the molar value.

These compounds were tested against T1, HCV NS3 protease domain (Hepatitis C virus genotype 1b, UniProt Q9WMX2) (assay: biochemical). Conditions: Enzyme Assay 1 (HCV NS3 Protease Domain Peptide Cleavage Assay) activity, apparent Ki class.
T1 construct: The first 181 amino acids of NS3 (residues 1027-1207 of the viral polyprotein); hexa-histidine (C); made in house; host or cells: E. coli BL21/DE3 pLysS
T1 sequence (Q9WMX2 1027-1207, other chains not shown): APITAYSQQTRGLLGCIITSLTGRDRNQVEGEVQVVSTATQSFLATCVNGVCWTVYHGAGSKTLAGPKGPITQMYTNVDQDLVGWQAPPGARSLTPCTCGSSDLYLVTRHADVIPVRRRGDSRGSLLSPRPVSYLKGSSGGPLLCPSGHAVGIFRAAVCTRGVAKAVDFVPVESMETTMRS

| Structure (SMILES) | pKi |
| --- | --- |
| CCC[C@H](NC(=O)[C@@H]1C[C@]2(CC(c3ccccc3)=NO2)CN1C(=O)[C@@H](NC(=O)Nc1cccc2ccccc12)C(C)(C)C)C(=O)C(=O)NC1CC1 [Compound 288] | 6.30 to 7.00 |
| CCC[C@H](NC(=O)[C@@H]1C[C@]2(CC(c3ccc(O)cc3)=NO2)CN1C(=O)[C@@H](NC(=O)O[C@H]1CCOC1)C(C)(C)C)C(=O)C(=O)NC1CC1 [Compound 530] | < 6.30 |
| CCC[C@H](NC(=O)[C@@H]1C[C@]2(CC(c3cccc(Cl)c3)=NO2)CN1C(=O)[C@@H](NC(=O)CC(C)C)C(C)(C)C)C(=O)C(=O)NC1CC1 [Compound 532] | < 6.30 |
| CCC[C@H](NC(=O)[C@@H]1C[C@]2(CC(c3ccc4c(c3)CCO4)=NO2)CN1C(=O)[C@@H](NC(=O)CC1CCCCC1)C(C)(C)C)C(=O)C(=O)NC1CC1 [Compound 552] | 6.30 to 7.00 |
| CCC[C@H](NC(=O)[C@@H]1C[C@]2(CC(c3cccc(Cl)c3)=NO2)CN1C(=O)[C@@H](NC(=O)Nc1ccc(N2C(=O)C=CC2=O)cc1)C(C)(C)C)C(=O)C(=O)NC1CC1 [Compound 128] | 6.30 to 7.00 |
| CCC[C@H](NC(=O)[C@@H]1C[C@]2(CC(c3cccc(Cl)c3)=NO2)CN1C(=O)[C@@H](NC(=O)NC1CCN(C(=O)OCc2ccccc2)CC1)C(C)(C)C)C(=O)C(=O)NC1CC1 [Compound 261] | 6.30 to 7.00 |
| CCC[C@H](NC(=O)[C@@H]1C[C@]2(CC(c3ccc(F)c(C)c3)=NO2)CN1C(=O)O[C@H]1CCOC1)C(=O)C(=O)NC1CC1 [Compound 413] | < 6.30 |
| CCC[C@H](NC(=O)[C@@H]1C[C@]2(CC(c3cccc(Cl)c3)=NO2)CN1C(=O)[C@@H](NC(=O)OCc1ccccc1)C(C)(C)C)C(=O)C(=O)NC1CC1 [Compound 526] | 6.30 to 7.00 |
| CCC[C@H](NC(=O)[C@@H]1C[C@]2(CC(c3cccc(Cl)c3)=NO2)CN1C(=O)[C@@H](NC(=O)OCCc1cccs1)C(C)(C)C)C(=O)C(=O)NC1CC1 [Compound 582] | 6.30 to 7.00 |
| CCC[C@H](NC(=O)[C@@H]1C[C@]2(CC(c3cccc(Cl)c3)=NO2)CN1C(=O)[C@@H](NC(=O)OCC)C(C)(C)C)C(=O)C(=O)NC1CC1 [Compound 407] | 6.30 to 7.00 |
| CCC[C@H](NC(=O)[C@@H]1C[C@]2(CC(C)=NO2)CN1C(=O)[C@@H](NC(C)=O)C(C)(C)C)C(=O)C(=O)NC1CC1 [Compound 180] | < 6.30 |
| CCC[C@H](NC(=O)[C@@H]1C[C@@]2(CC(c3cc(F)cc(C(F)(F)F)c3)=NO2)CN1C(=O)[C@@H](NC(=O)O[C@H]1CCOC1)C(C)(C)C)C(=O)C(=O)NC1CC1 [Compound 258] | < 6.30 |
| CCC[C@H](NC(=O)[C@@H]1C[C@]2(CC(c3cccc(Cl)c3)=NO2)CN1C(=O)[C@@H](NC(=O)OCCc1ccc(F)cc1)C(C)(C)C)C(=O)C(=O)NC1CC1 [Compound 118] | < 6.30 |
| CCC[C@H](NC(=O)[C@@H]1C[C@]2(CC(c3ccccc3)=NO2)CN1C(=O)[C@@H](NC(=O)[C@@H](NC(=O)c1cnccn1)C1CCCCC1)C(C)(C)C)C(=O)C(=O)NC1CC1 [Compound 281] | > 7.00 |
| CCC[C@H](NC(=O)[C@@H]1C[C@]2(CC(c3cccc(Cl)c3)=NO2)CN1C(=O)[C@@H](NC(=O)OC(C)C)C(C)(C)C)C(=O)C(=O)NC1CC1 [Compound 193] | 6.30 to 7.00 |
| CCC[C@H](NC(=O)[C@@H]1C[C@]2(CC(c3ccc([N+](=O)[O-])cc3)=NO2)CN1C(=O)[C@@H](NC(=O)O[C@H]1CCOC1)C(C)(C)C)C(=O)C(=O)NC1CC1 [Compound 511] | 6.30 to 7.00 |
| CCC[C@H](NC(=O)[C@@H]1C[C@]2(CC(c3ccc(Cl)cc3)=NO2)CN1C(=O)[C@@H](NC(=O)CC1CCOCC1)C(C)(C)C)C(=O)C(=O)NC1CC1 [Compound 299] | < 6.30 |
| CCC[C@H](NC(=O)[C@@H]1C[C@]2(CC(c3cccc(Cl)c3)=NO2)CN1C(=O)[C@@H](NC(=O)c1cccc([C@@H](C)C#N)c1)C(C)(C)C)C(=O)C(=O)NC1CC1 [Compound 324] | < 6.30 |
| CCC[C@H](NC(=O)[C@@H]1C[C@]2(CC(c3cccc(Cl)c3)=NO2)CN1C(=O)[C@@H](NC(=O)[C@@H](C)Cc1ccccc1)C(C)(C)C)C(=O)C(=O)NC1CC1 [Compound 334] | < 6.30 |
| CCC[C@H](NC(=O)[C@@H]1C[C@]2(CC(c3ccc(F)c(C)c3)=NO2)CN1C(=O)[C@@H](NC(=O)CC1CCOCC1)C(C)(C)C)C(=O)C(=O)NC1CC1 [Compound 539] | 6.30 to 7.00 |
| CCC[C@H](NC(=O)[C@@H]1C[C@]2(CC(c3cccc(Cl)c3)=NO2)CN1C(=O)[C@H](Cc1ccccc1)NC(=O)OCC)C(=O)C(=O)NC1CC1 [Compound 427] | < 6.30 |
| CCC[C@H](NC(=O)[C@@H]1C[C@]2(CC(c3ccc4c(c3)OCO4)=NO2)CN1C(=O)[C@@H](NC(=O)O[C@H]1CCOC1)C(C)(C)C)C(=O)C(=O)NC1CC1 [Compound 527] | 6.30 to 7.00 |
| CCC[C@H](NC(=O)[C@@H]1C[C@]2(CC(c3cccc(Cl)c3)=NO2)CN1C(=O)Oc1ccc([N+](=O)[O-])cc1)C(=O)C(=O)NC1CC1 [Compound 262] | < 6.30 |
| CCC[C@H](NC(=O)[C@@H]1C[C@]2(CC(c3ccccc3)=NO2)CN1C(=O)OCC1c2ccccc2-c2ccccc21)C(=O)C(=O)NC1CC1 [Compound 514] | < 6.30 |

| Structure (SMILES) | pKi |
| --- | --- |
| CCC[C@H](NC(=O)[C@@H]1C[C@]2(CC(c3ccc(F)c(Cl)c3)=NO2)CN1C(=O)[C@@H](NC(=O)CC1CCOCC1)C(C)(C)C)C(=O)C(=O)NC1CC1 [Compound 270] | 6.30 to 7.00 |
| CCC[C@H](NC(=O)[C@@H]1C[C@]2(CC(c3ccc(C)cc3)=NO2)CN1C(=O)[C@@H](NC(=O)O[C@H]1CCOC1)C(C)(C)C)C(=O)C(=O)NC1CC1 [Compound 385] | < 6.30 |
| CCC[C@H](NC(=O)[C@@H]1C[C@]2(CC(c3ccc(Cl)c(Cl)c3)=NO2)CN1C(=O)[C@@H](NC(=O)CC1CCCCC1)C(C)(C)C)C(=O)C(=O)NC1CC1 [Compound 323] | 6.30 to 7.00 |
| CCC[C@H](NC(=O)C1C[C@]2(CC(c3ccc4c(c3)OCO4)=NO2)CN1C(=O)c1ccc[nH]1)C(=O)C(=O)NC1CC1 (stereo partly drawn) [Compound 51] | < 6.30 |
| CCC[C@H](NC(=O)[C@@H]1C[C@]2(CC(c3cccc(Cl)c3)=NO2)CN1C(=O)[C@@H](NC(=O)NCC)C(C)(C)C)C(=O)C(=O)NC1CC1 [Compound 123] | > 7.00 |
| CCC[C@H](NC(=O)[C@@H]1C[C@]2(CC(c3cccc(Cl)c3)=NO2)CN1C(=O)[C@@H](NC(=O)C(C)Cn1ccc(C)n1)C(C)(C)C)C(=O)C(=O)NC1CC1 (stereo partly drawn) [Compound 474] | < 6.30 |
| CCC[C@H](NC(=O)[C@@H]1C[C@]2(CC(c3cccc(Cl)c3)=NO2)CN1C(=O)[C@@H](NC(=O)Cc1cc(=O)[nH]c(=O)[nH]1)C(C)(C)C)C(=O)C(=O)NC1CC1 [Compound 553] | 6.30 to 7.00 |
| CCC[C@H](NC(=O)[C@@H]1C[C@]2(CC(c3cccc(Cl)c3)=NO2)CN1C(=O)[C@@H](NC(=O)NC(C)(C)C)C(C)(C)C)C(=O)C(=O)NC1CC1 [Compound 492] | > 7.00 |
| CCC[C@H](NC(=O)[C@@H]1C[C@]2(CC(c3cc(F)cc(F)c3)=NO2)CN1C(=O)[C@@H](NC(=O)O[C@H]1CCOC1)C(C)(C)C)C(=O)C(=O)NC1CC1 [Compound 106] | < 6.30 |
| CCC[C@H](NC(=O)[C@@H]1C[C@]2(CC(c3cccc(Cl)c3)=NO2)CN1C(=O)[C@@H](NC(=O)Cc1cccc(OC(F)(F)F)c1)C(C)(C)C)C(=O)C(=O)NC1CC1 [Compound 585] | 6.30 to 7.00 |
| CCC[C@H](NC(=O)[C@@H]1C[C@]2(CC(c3nn(C)cc3Cl)=NO2)CN1C(=O)[C@@H](NC(=O)CC1CCCCC1)C(C)(C)C)C(=O)C(=O)NC1CC1 [Compound 495] | < 6.30 |
| CCC[C@H](NC(=O)[C@@H]1C[C@]2(CC(CCC(=O)OC)=NO2)CN1C(=O)[C@@H](NC(=O)O[C@H]1CCOC1)C(C)(C)C)C(=O)C(=O)NC1CC1 [Compound 229] | < 6.30 |
| CCC[C@H](NC(=O)C1C[C@]2(CC(c3ccc(C(F)(F)F)cc3)=NO2)CN1C(=O)[C@@H](NC(=O)O[C@H]1CCOC1)C(C)(C)C)C(=O)C(=O)NC1CC1 (stereo partly drawn) [Compound 52] | 6.30 to 7.00 |
| CCC[C@H](NC(=O)[C@@H]1C[C@]2(CC(c3cccc(Cl)c3)=NO2)CN1C(=O)[C@@H](NC(=O)OCCCc1ccccn1)C(C)(C)C)C(=O)C(=O)NC1CC1 [Compound 373] | 6.30 to 7.00 |
| CCC[C@H](NC(=O)[C@@H]1C[C@]2(CC(c3ccccc3)=NO2)CN1C(=O)[C@@H](NC(=O)Cc1cccnc1)C(C)(C)C)C(=O)C(=O)NC1CC1 [Compound 283] | < 6.30 |
| CCC[C@H](NC(=O)[C@@H]1C[C@]2(CC(c3cccc(Cl)c3)=NO2)CN1C(=O)[C@@H](NC(=O)Nc1ccccc1)C(C)(C)C)C(=O)C(=O)NC1CC1 [Compound 558] | 6.30 to 7.00 |
| CCC[C@H](NC(=O)[C@@H]1C[C@]2(CC(c3cccc(Cl)c3)=NO2)CN1C(=O)[C@@H](NC(=O)CC1CCCCC1)C(C)(C)C)C(=O)C(=O)Nc1cccc(C(C)=O)c1 [Compound 355] | < 6.30 |
| CCC[C@H](NC(=O)[C@@H]1C[C@@]2(CC(c3ccc(C)c(F)c3)=NO2)CN1C(=O)[C@@H](NC(=O)O[C@H]1CCOC1)C(C)(C)C)C(=O)C(=O)NC1CC1 [Compound 423] | < 6.30 |
| CCC[C@H](NC(=O)[C@@H]1C[C@]2(CC(c3cccc(Cl)c3)=NO2)CN1C(=O)[C@@H](NC(=O)Cn1ccc2ncccc21)C(C)(C)C)C(=O)C(=O)NC1CC1 [Compound 506] | < 6.30 |
| CCC[C@H](NC(=O)[C@@H]1C[C@]2(CC(c3cccc(Cl)c3)=NO2)CN1C(=O)[C@@H](NC(=O)NCC(C)C)C(C)(C)C)C(=O)C(=O)NC1CC1 [Compound 156] | > 7.00 |
| CCC[C@H](NC(=O)[C@@H]1C[C@]2(CC(c3cccc(Cl)c3)=NO2)CN1C(=O)[C@@H](NC(=O)CC1=CCCCC1)C(C)(C)C)C(=O)C(=O)NC1CC1 [Compound 245] | 6.30 to 7.00 |
| CCC[C@H](NC(=O)[C@@H]1C[C@]2(CC(c3cccc(Cl)c3)=NO2)CN1C(=O)[C@@H](NC(=O)NCC(N)=O)C(C)(C)C)C(=O)C(=O)NC1CC1 [Compound 94] | > 7.00 |
| CCC[C@H](NC(=O)[C@@H]1C[C@]2(CC(c3cccc(Cl)c3)=NO2)CN1C(=O)[C@@H](NC(=O)OCC1CCOC1)C(C)(C)C)C(=O)C(=O)NC1CC1 (stereo partly drawn) [Compound 152] | 6.30 to 7.00 |
| CCC[C@H](NC(=O)[C@@H]1C[C@]2(CC(c3cccc(Cl)c3)=NO2)CN1C(=O)[C@@H](NC(=O)c1cn(C(C)C)c2ccccc2c1=O)C(C)(C)C)C(=O)C(=O)NC1CC1 [Compound 135] | < 6.30 |
